In the experiment the test system is HIV-IIIb. Put plainly: Test A: Antiviral Assay in MT4 Cells. In kind it is cell-based. The note with it: Human immunodeficiency virus 1, IIIB, MT4, 120 h, MT-4 cells infected with HIV-IIIb, 5 days of incubation, CellTiter-Glo, read-out: EC50. How it is done: The antiviral properties of a compound of the invention may be determined using Test A described below.
Test A: Antiviral Assay in MT4 Cells
For the antiviral assay utilizing MT-4 cells, 0.4 μL of […] test concentration of 3-fold serially diluted compound in DMSO was added to 40 μL of cell growth medium (RPMI 1640, 10% FBS, 1% penicilline/Streptomycine, 1% L-Glutamine, 1% HEPES) in each well of 384-well assay plates (10 concentrations) in quadruplicate.
One mL aliquots of 2×10e6 MT-4 cells were pre-infected for 1 and 3 hours respectively, @ 37° C. with 25 uL (MT4) or of either cell growth medium (mock-infected) or a fresh 1:250 dilution of an HIV-IIIb concentrated ABI stock (0.004m.o.i. for MT4 cells). Infected and uninfected cells were diluted in cell growth medium and 35 uL of 2000 (for MT4) cells was added to each well of the assay plates.
Assay plates were then incubated in a 37° C. incubator. After 5 days of incubation, […] of 2× concentrated CellTiter-Glo™ Reagent (catalog #G7573, Promega Biosciences, Inc., Madison, Wis.) was added to each well of the assay plate. Cell lysis was carried out by incubating at room temperature for 2-3 min and then chemiluminescence was read using the Envision reader (PerkinElmer). […]

Read-outs that look alike come from different tables or passages of the source.

`Cc1cc2nc(-c3ccnc(C4CCOCC4)n3)sc2c(-c2ccc(Cl)cc2)c1[C@H](OC(C)(C)C)C(=O)O` [Compound 340]: where the note is “Table 2”, the EC50 turned out to be 9 nM.

For `Cc1cc2nc(-c3cccc(-c4ccc5c(cnn5C)c4)c3)sc2c(-c2cc(F)c3c(c2C)C(=O)CCO3)c1[C@H](OC(C)(C)C)C(=O)O` (atropisomer, axis not shown) [Compound 167], the EC50 (Table 1) turned out to be 39 nM.

`Cc1cc2nc(-c3nn(C)c4ccncc34)sc2c(-c2ccc(Cl)cc2)c1[C@H](OC(C)(C)C)C(=O)O` [Compound 363]: the concentration giving a half-maximal response (EC50) (Table 2) came out at 15 nM.

Take `Cc1cc2nc(-c3ccc4c(c3)c(C)nn4Cc3ccccc3)sc2c(-c2ccc(Cl)cc2)c1[C@H](OC(C)(C)C)C(=O)O` [Compound 314, (S)-2-(2-(1-benzyl-3-methyl-1H-indazol-5-yl)-7-(4-chlorophenyl)-5-methylbenzo[d]thiazol-6-yl)-2-tert-butoxyacetic acid]: the 50% effective concentration (EC50) (Table 2) was determined as 42 nM.

Consider `Cc1cc2nc(-c3cncc(N4CCN(C5COC5)CC4)c3)sc2c(-c2ccc(Cl)cc2)c1[C@H](OC(C)(C)C)C(=O)O` [Compound 482, (S)-2-tert-butoxy-2-(7-(4-chlorophenyl)-5-methyl-2-(5-(4-(oxetan-3-yl)piperazin-1-yl)pyridin-3-yl)benzo[d]thiazol-6-yl)acetic acid], for which the concentration giving a half-maximal response (EC50) (Table 2) was 14 nM.

Take `Cc1cc2nc(-c3ccnc(-c4cccc5c4CCN5C)c3)sc2c(-c2ccc(Cl)cc2)c1[C@H](OC(C)(C)C)C(=O)O` [Compound 398]: the EC50 (Table 2) amounted to 36 nM.

As for `Cc1cc2nc(-c3ccnc(N4CCN(C(C)C)[C@H](C)C4)n3)sc2c(-c2ccc(Cl)cc2)c1[C@H](OC(C)(C)C)C(=O)O` [Compound 471, (S)-2-tert-butoxy-2-(7-(4-chlorophenyl)-2-(2-((R)-4-isopropyl-3-methylpiperazin-1-yl)pyrimidin-4-yl)-5-methylbenzo[d]thiazol-6-yl)acetic acid], the EC50 (Table 2) was 3 nM.

In the case of `Cc1cc2nc(-c3ccnc(-c4ccc5cnn(C)c5c4)c3)sc2c(-c2ccc(Cl)cc2)c1[C@H](OC(C)(C)C)C(=O)O` [Compound 108, (S)-2-tert-butoxy-2-(7-(4-chlorophenyl)-5-methyl-2-(2-(1-methyl-1H-indazol-6-yl)pyridin-4-yl)benzo[d]thiazol-6-yl)acetic acid], the half-maximal effective concentration (EC50) (Table 1) was found to be 33 nM.

On to `Cc1cc2nc(-c3ccc4c(c3)c(=O)n(C)n4C)sc2c(-c2ccc(Cl)cc2)c1[C@H](OC(C)(C)C)C(=O)O` [Compound 455], for which the EC50 (Table 2) is 17 nM.

Take `Cc1cc2nc(-c3ccc4[nH]ncc4c3)sc2c(-c2ccc(Cl)cc2)c1[C@H](OC(C)(C)C)C(=O)O` [Compound 349]: the EC50 (Table 2) is 42 nM.

For `Cc1cc2nc(-c3ccc4c(c3)c(C3CCN(C)CC3)nn4C)sc2c(-c2ccc(Cl)cc2)c1[C@H](OC(C)(C)C)C(=O)O` [Compound 268, (S)-2-tert-butoxy-2-(7-(4-chlorophenyl)-5-methyl-2-(1-methyl-3-(1-methylpiperidin-4-yl)-1H-indazol-5-yl)benzo[d]thiazol-6-yl)acetic acid], the EC50 (Table 2) is 12 nM.

For `COc1ccc(-c2cc(-c3nc4cc(C)c([C@H](OC(C)(C)C)C(=O)O)c(-c5ccc(Cl)cc5)c4s3)cnn2)cc1OC` [Compound 338], where the note is “Table 2”, the EC50 is 11 nM.

Consider `Cc1cc2nc(-c3cnc4[nH]cc(C)c4c3)sc2c(-c2ccc(Cl)cc2)c1[C@H](OC(C)(C)C)C(=O)O` [Compound 112], for which the concentration giving a half-maximal response (EC50) (Table 1) worked out at 28 nM.

In the case of `Cc1cc2nc(N3CCN(C(C)C)C(c4ccc5c(cnn5C)c4)C3)sc2c(-c2ccc(Cl)cc2)c1[C@H](OC(C)(C)C)C(=O)O` (stereo partly drawn) [Compound 279, (2S)-2-tert-butoxy-2-(7-(4-chlorophenyl)-2-(4-isopropyl-3-(1-methyl-1H-indazol-5-yl)piperazin-1-yl)-5-methylbenzo[d]thiazol-6-yl)acetic acid], the EC50 (Table 2) worked out at 16 nM.

Take `Cc1cc2nc(-c3ccnc(-c4cnc5c(c4)c(C)cn5C)c3)sc2c(-c2ccc(Cl)cc2)c1[C@H](OC(C)(C)C)C(=O)O` [Compound 386]: the EC50 (Table 2) turned out to be 56 nM.

As for `Cc1ccc(C2(C)CN(c3nc4cc(C)c([C@H](OC(C)(C)C)C(=O)O)c(-c5ccc(Cl)cc5)c4s3)CCO2)cc1` (stereo partly drawn) [Compound 323, (2S)-2-tert-butoxy-2-(7-(4-chlorophenyl)-5-methyl-2-(2-methyl-2-p-tolylmorpholino)benzo[d]thiazol-6-yl)acetic acid], where the note is “Table 2”, the EC50 was determined as 384 nM.

Take `Cc1cc2nc(-n3ccnc(-c4ccc5c(cnn5C)c4)c3=O)sc2c(-c2ccc(Cl)cc2)c1[C@H](OC(C)(C)C)C(=O)O` [Compound 273, (S)-2-tert-butoxy-2-(7-(4-chlorophenyl)-5-methyl-2-(3-(1-methyl-1H-indazol-5-yl)-2-oxopyrazin-1(2H)-yl)benzo[d]thiazol-6-yl)acetic acid]: the EC50 (Table 2) was 53 nM.

Consider `Cc1cc2nc(-c3ccc4scnc4c3)sc2c(-c2ccc(Cl)cc2)c1[C@H](OC(C)(C)C)C(=O)O` [Compound 429], for which the EC50 (Table 2) came to 43 nM.

As to `Cc1cc2nc(-n3ccc4ccncc4c3=O)sc2c(-c2ccc(Cl)cc2)c1[C@H](OC(C)(C)C)C(=O)O` [Compound 195, (S)-2-tert-butoxy-2-(7-(4-chlorophenyl)-5-methyl-2-(1-oxo-2,7-naphthyridin-2(1H)-yl)benzo[d]thiazol-6-yl)acetic acid], where the note is “Table 2”, the EC50 came out at 11 nM.

As to `CNc1nn(C)c2ccc(-c3nc4cc(C)c([C@H](OC(C)(C)C)C(=O)O)c(-c5ccc(Cl)cc5)c4s3)cc12` [Compound 444], the EC50 (Table 2) was determined as 10 nM.

With `Cc1cc2nc(-c3cccc(-c4ccc5c(cnn5C)c4)c3)sc2c(-c2ccc3c(c2)CCCO3)c1[C@H](OC(C)(C)C)C(=O)O` [Compound 170], the 50% effective concentration (EC50) (Table 1) came to 35 nM.

Turning to `Cc1cc2nc(-c3ccnc(-c4ccc5c(c4)OCC(=O)N5C)c3)sc2c(-c2ccc(Cl)cc2)c1[C@H](OC(C)(C)C)C(=O)O` [Compound 389], the EC50 (Table 2) came out at 7 nM.

Take `Cc1ccc(-c2nc3cc(C)c([C@H](OC(C)(C)C)C(=O)O)c(-c4ccc(Cl)cc4)c3s2)nc1-c1ccc2c(cnn2C)c1` [Compound 313, (S)-2-tert-butoxy-2-(7-(4-chlorophenyl)-5-methyl-2-(5-methyl-6-(1-methyl-1H-indazol-5-yl)pyridin-2-yl)benzo[d]thiazol-6-yl)acetic acid]: the EC50 (Table 2) worked out at 14 nM.

`Cc1cc2nc(-c3cc(-c4ccc5c(cnn5C)c4)ncn3)sc2c(-c2ccc(Cl)cc2)c1[C@H](OC(C)(C)C)C(=O)O` [Compound 130]: under “Table 1”, the EC50 was found to be 100 nM.

As to `Cc1cc2nc(N3CCc4ccncc4C3)sc2c(-c2ccc(Cl)cc2)c1[C@H](OC(C)(C)C)C(=O)O` [Compound 434], the EC50 (Table 2) was 42 nM.

Regarding `Cc1cc2nc(-c3ccnc(-c4ccc(N5CCN(C)CC5)nc4)c3)sc2c(-c2ccc(Cl)cc2)c1[C@H](OC(C)(C)C)C(=O)O` [Compound 140], the EC50 (Table 1) worked out at 5 nM.

For the compound `Cc1cc2nc(-c3cccc(N4CCN(C(C)C)CC4)c3)sc2c(-c2ccc(Cl)cc2)c1[C@H](OC(C)(C)C)C(=O)O` [Compound 483, (S)-2-tert-butoxy-2-(7-(4-chlorophenyl)-2-(3-(4-isopropylpiperazin-1-yl)phenyl)-5-methylbenzo[d]thiazol-6-yl)acetic acid], the EC50 (Table 2) stood at 37 nM.

`Cc1cc2nc(-c3ccc4c(c3)c(C(C)C)nn4C)sc2c(-c2ccc(Cl)cc2)c1[C@H](OC(C)(C)C)C(=O)O` [Compound 330, (S)-2-tert-butoxy-2-(7-(4-chlorophenyl)-2-(3-isopropyl-1-methyl-1H-indazol-5-yl)-5-methylbenzo[d]thiazol-6-yl)acetic acid]: the EC50 (Table 2) was 19 nM.

`Cc1cc2nc(-c3ccc4c(cnn4C)c3)sc2c(-c2ccc(Cl)cc2)c1[C@H](OC(C)(C)C)C(=O)O` [Compound 113b, (S)-2-tert-butoxy-2-(7-(4-chlorophenyl)-5-methyl-2-(1-methyl-1H-indazol-5-yl)benzo[d]thiazol-6-yl)acetic acid]: where the note is “Table 1”, the EC50 stood at 18 nM.

As for `Cc1cc2nc(-c3ccc4c(c3)c(-c3cnccn3)nn4C)sc2c(-c2ccc(Cl)cc2)c1[C@H](OC(C)(C)C)C(=O)O` [Compound 428], the EC50 (Table 2) stood at 7 nM.

For `Cc1cc2nc(-c3ccnc(-c4cn(C)c5ncc(F)cc45)c3)sc2c(-c2ccc(Cl)cc2)c1[C@H](OC(C)(C)C)C(=O)O` [Compound 382], the EC50 (Table 2) came to 91 nM.

With `Cc1cc2nc(-c3cccn(-c4ccc5c(cnn5C)c4)c3=O)sc2c(-c2ccc(Cl)cc2)c1[C@H](OC(C)(C)C)C(=O)O` [Compound 182, (S)-2-tert-butoxy-2-(7-(4-chlorophenyl)-5-methyl-2-(1-(1-methyl-1H-indazol-5-yl)-2-oxo-1,2-dihydropyridin-3-yl)benzo[d]thiazol-6-yl)acetic acid], the EC50 (Table 2) is 80 nM.

Take `Cc1cc2nc(-c3ccc4c(c3)CC(=O)N4)sc2c(-c2ccc(Cl)cc2)c1[C@H](OC(C)(C)C)C(=O)O` [Compound 240, (S)-2-tert-butoxy-2-(7-(4-chlorophenyl)-5-methyl-2-(2-oxoindolin-5-yl)benzo[d]thiazol-6-yl)acetic acid]: the EC50 (Table 2) was found to be 76 nM.

For `Cc1cc2nc(-c3ccnc(-c4ccc5c(c4)c(=O)n(C)n5C)c3)sc2c(-c2ccc(Cl)cc2)c1[C@H](OC(C)(C)C)C(=O)O` [Compound 461], for the setting “Table 2”, the EC50 is 14 nM.

The values are drawn from patent US8987250B2 (Gilead Sciences, Inc., priority 2012, dated 2015).
